Assay results: article PMC8624133, “10th Trends in Medical Mycology Held on 8 to 11 October 2021, Aberdeen, Scotland, Organized by the European Confederation of Medical Mycology (ECMM)” (Journal of Fungi, 2021)
In brackets after ≈: the same amount, converted by molar mass. Non-standard residues stand in square brackets, D forms with d. Residues, ends and D or L forms follow the SMILES beside them. No end group written: not given here. pS = N[C@@H](COP(=O)(O)O)C(=O)O

How the values were obtained:
C. auris [1] = test: EUCAST EDef 7.3.1 MIC and checkerboard microdilution; assay type: cell-based, Candida auris
Description: Methods: We studied 22 C. auris isolates obtained from different clinical samples from the Hospital La Fe, Valencia, Spain (eight from blood culture, seven from oropharynx and seven from urine cultures). Candida parapsilosis ATCC 22019 and Candida krusei ATCC 6258 were used as quality controls. The minimum inhibitory concentration (MIC) was determined according to the European Committee on Antibiotic Susceptibility Testing (EUCAST) EDef 7.3.1 document. The interaction between citral and the rest of antifungal drugs was assessed by a checkerboard microdilution method. […] The in vitro interaction of the drug combinations was interpreted in terms of the fractional inhibitory concentration index (FICI) as follows: FICI < 1, synergistic; FICI equal to 1, additive; and FICI > 1, indifferent or antagonistic.

C. albicans ATCC 1453 = test: Broth microdilution of modified HDPs; assay type: cell-based, Candida albicans; conditions: 0.19 to 50 μg/mL tested
C. neoformans H99 = test: Broth microdilution of modified HDPs; assay type: cell-based, Cryptococcus neoformans; conditions: 0.19 to 50 μg/mL tested
Text: (§1) Materials & Methods: From the Scarabaeidae family transcriptome, 14 promising HDPs were identified. Subsequently, we designed new sequences modifying the net charge, hydrophobic angle and the general composition of amino acids, among other properties, in order to improve the HDPs antifungal activity. The in vitro antifungal susceptibility of the 14 modified HDPs against Candida krusei, ATCC 6558, Candida parapsilosis ATCC 22019, Candida glabrata ATCC 2001, Candida tropicalis ATCC 750, Cryptococcus neoformans H99 and Cryptococcus gattii H0058-I-2029 isolates were evaluated by broth microdilution, with a concentration ranging from 0.19 to 50 μg/mL for all peptides.

C. albicans SC5314 = test: Broth microdilution of modified HDPs; assay type: cell-based, Candida albicans; conditions: 0.19 to 50 μg/mL tested
[2] = tested on: C. parapsilosis ATCC 22019; test: Broth microdilution of modified HDPs; assay type: cell-based, Candida parapsilosis; conditions: 0.19 to 50 μg/mL tested
Text: as §1

C. tropicalis ATCC 750 = test: Broth microdilution of modified HDPs; assay type: cell-based, Candida tropicalis; conditions: 0.19 to 50 μg/mL tested
Text: as §1

C. glabrata ATCC 2001 = test: Broth microdilution of modified HDPs; assay type: cell-based, Candida glabrata; conditions: 0.19 to 50 μg/mL tested
Text: as §1

C. krusei ATCC 6558 = test: Broth microdilution of modified HDPs; assay type: cell-based, Candida krusei; conditions: 0.19 to 50 μg/mL tested
Text: as §1

C. gattii H0058-I-2029 = test: Broth microdilution of modified HDPs; assay type: cell-based, Cryptococcus gattii; conditions: 0.19 to 50 μg/mL tested
Text: as §1

[3] = tested on: nine strains of Candida spp.; test: CLSI M27-A3 broth microdilution; assay type: cell-based
C. auris [4] = test: CLSI M27-A3 broth microdilution; assay type: cell-based, Candida auris; conditions: for GM MIC (≥90% reduction of visible growth): 256–16 μg/mL tested, duplicate at two times
[5] = tested on: P. insidiosum (strains CBS101555, P38, ATCC90586); test: Radial growth assay; assay type: cell-based, Pythium insidiosum; conditions: for reduction of growth compared to the control: colony radial growth; for MIC: Pythium insidiosum
Description: These agriculture fungicides were initially evaluated for inhibitory effect against 3 phylogenetical distinct strains of P. insidiosum (i.e., strains CBS101555, P38, and ATCC90586) isolated from humans and animal with pythiosis in Thailand, Brazil, and United States. A radial growth assay was employed for the in vitro susceptibility analysis. […] The percentage of the colony’s radial growth of the treated organism was calculated in relation to the untreated control. The microscopic changes of the microorganisms were recorded.

Molecule	MIC (C. albicans ATCC 1453) [mg/L]	MIC (C. neoformans H99) [mg/L]	MIC (C. albicans SC5314) [mg/L]	MIC [2] [mg/L]	MIC (C. tropicalis ATCC 750) [mg/L]	MIC (C. glabrata ATCC 2001) [mg/L]	MIC (C. krusei ATCC 6558) [mg/L]	MIC (C. gattii H0058-I-2029) [mg/L]	further results
CC(C)=CCCC(C)=CC=O (mixture of isomers) [citral]	–	–	–	–	–	–	–	–	MIC of citral in combination with anidulafungin (C. auris [1]; 21 of the 22 isolates): 3 to 128 mg/L; MIC (C. auris [1]; Candidozyma auris, 22 clinical isolates): > 1020 mg/L; isolates with additive effect (FICI equal to 1) (C. auris [1]; citral + fluconazole): eight; isolates with synergistic effect (FICI < 1) (C. auris [1]; citral + fluconazole): three; isolates with additive effect (FICI equal to 1) (C. auris [1]; citral + isavuconazole): seven; isolates with synergistic effect (FICI < 1) (C. auris [1]; citral + isavuconazole): seven
CC[C@H](C)[C@H](NC(=O)[C@H](CCCCN)NC(=O)[C@H](CCCCN)NC(=O)[C@@H](NC(=O)[C@H](CCCNC(=N)N)NC(=O)[C@H](CCCCN)NC(=O)[C@H](CCC(=O)O)NC(=O)[C@H](Cc1ccccc1)NC(=O)[C@H](CCCCN)NC(=O)[C@H](CCCNC(=N)N)NC(=O)[C@H](Cc1c[nH]c2ccccc12)NC(=O)[C@H](CCCNC(=N)N)NC(=O)[C@H](CCCCN)NC(=O)[C@H](COP(=O)(O)O)NC(=O)[C@@H](N)CCCCN)C(C)C)C(=O)N[C@@H](Cc1ccccc1)C(=O)N[C@@H](CCC(=O)O)C(=O)N[C@@H](CCCCN)C(=O)N[C@H](C(=O)N[C@@H](CCCCN)C(=O)N[C@@H](CCC(=O)O)C(=O)N[C@@H](C)C(=O)N[C@@H](CCCCN)C(N)=O)[C@@H](C)O [Act2.1] (H-K[pS]KRWRKFEKRVKKIFEKTKEAK-NH2)	>50	>50	>50	1.56 (≈ 0.51 µM)	>50	1.56 (≈ 0.51 µM)	0.78 (≈ 0.255 µM)	1.56 (≈ 0.51 µM)	–
C=C(C)[C@H]1CC=C(C)CC1 [D-limonene]	–	–	–	–	–	–	–	–	selectivity index (SI) ([3]; C. glabrata LMDM 34 vs HaCat): 6; selectivity index (SI) ([3]; C. methapsilosis MUM 1512 vs HaCat): 50; selectivity index (SI) ([3]; C. orthopsilosis MUM 1713 vs HaCat): 25; selectivity index (SI) ([3]; C. tropicalis ATCC 200956 vs HaCat): 12; MICs range (C. auris [4]): 16 to 128 µg/mL; GM MIC (≥90% reduction of visible growth) (C. auris [4]): 20.39 mg/L
O=C(NCc1ncc(C(F)(F)F)cc1Cl)c1c(Cl)cccc1Cl [Fluopicolide, fluopicolide]	–	–	–	–	–	–	–	–	reduction of growth compared to the control [5]: at least 70%; MICs ([5]; tested at 0.25–[…], 3 biological replicates): 8 µg/mL
Cc1ccc(C(C)C)cc1O [carvacrol]	–	–	–	–	–	–	–	–	GM MIC (≥90% reduction of visible growth) (C. auris [4]): 215.3 mg/L
Cc1ccc(-c2c(Cl)nc(C#N)n2S(=O)(=O)N(C)C)cc1 [cyazofamid]	–	–	–	–	–	–	–	–	MIC [5]: 16 mg/L (≈ 49.3 µM); reduction of growth compared to the control [5]: at least 70%
COc1ccc(C(=CC(=O)N2CCOCC2)c2ccc(Cl)cc2)cc1OC [dimethomorph]	–	–	–	–	–	–	–	–	inhibition [5]: no significant inhibition
CSC1=N[C@@](C)(c2ccccc2)C(=O)N1Nc1ccccc1 [fenamidone]	–	–	–	–	–	–	–	–	MIC [5]: 64 mg/L (≈ 206 µM); reduction of growth compared to the control [5]: at least 70%
Cc1cc(C(F)(F)F)nn1CC(=O)N1CCC(c2nc(C3=NOC(c4c(F)cccc4F)C3)cs2)CC1 (stereo not drawn) [oxathiapiprolin]	–	–	–	–	–	–	–	–	inhibition [5]: no significant inhibition
Cc1ccc(C(C)C)cc1 [p-cymene]	–	–	–	–	–	–	–	–	GM MIC (≥90% reduction of visible growth) (C. auris [4]): 215.3 mg/L
Cc1ccc(C(C)C)c(O)c1 [thymol]	–	–	–	–	–	–	–	–	GM MIC (≥90% reduction of visible growth) (C. auris [4]): 104 mg/L
GSKRWRKFEKRVKK-NH2 [domcec]	>50	>50	>50	3.12	>50	6.25	3.12	>50	–
GSKRWRKFEKRVKKIFEETKEALPVVQGVAGVAGAVGRR-NH2 [ConCec]	>50	25	>50	0.39	25	1.56	0.78	1.56	–
GSKRWRKFEKRVKKIFEHTKEA-NH2 [Act7]	>50	50	>50	1.56	>50	3.12	0.78	3.12	–
GSKRWRKFEKRVKKIFEHTKEAK-NH2 [Act8]	>50	50	>50	1.56	>50	3.12	0.78	3.12	–
GSKRWRKFEKRVKKIFEKTKEA-NH2 [Act5]	>50	25	25 to 50	3.12	>50	3.12	1.56	1.56	–
GSKRWRKFEKRVKKIFEKTKEAK-NH2 [Act6]	>50	50	>50	1.56	>50	3.12	0.78	3.12	–
GSKRWRKFEKRVKKVFEHTKEA-NH2 [ox322]	>50	50	>50	1.56	>50	3.12	1.56	3.12	–
KSKRWRKFEKRVKKIFEHTKEA-NH2 [Act3]	>50	50	>50	3.12	>50	1.56	0.78	3.12	–
KSKRWRKFEKRVKKIFEHTKEAK-NH2 [Act4]	>50	50	>50	1.56	50	3.12	0.78	1.56	–
KSKRWRKFEKRVKKIFEKFKEAK-NH2 [Act2.2]	>50	12.5	>50	1.56	12.5	1.56	0.78	1.56	–
KSKRWRKFEKRVKKIFEKTKEA-NH2 [Act1]	>50	50	>50	3.12	50	3.12	1.56	6.25	–
KSKRWRKFEKRVKKIFEKTKEAK-NH2 [Act2]	>50	25	>50	1.56	50	1.56	0.78	3.12	–
RSKKWRKIEKRVKKIFEKTKEA-NH2 [sat122]	>50	50	>50	0.39	50	3.12	1.56	3.12	–
